US20250339409A1, “USES OF PAN BET INHIBITORS” (VYNE THERAPEUTICS INC., priority 2021, published 2025)

Test system: 92 target genes related to melanogenesis
Experiment: RHE vitiligo model: gene expression analysis (TaqMan low density array, RT-qPCR)
Assay type: cell-based, human
Set-up: key to FC of XPC gene expression / FC of GNAS gene expression / FC of ATP7A gene expression / FC of TYR gene expression / FC of RAB27A gene expression / FC of KITLG gene expression / FC of ADCY2 gene expression: fold change in expression by comparative Ct (ΔΔCt) method
Method: At the end of the treatments, total RNAs is extracted from 3 epidermis per condition (n=3) using the Qiagen RNeasy kit (Qiagen; 74106). Epidermis is rinsed with cold PBS and lysed in the ad hoc buffer provided in the kit. Extraction is performed according to the supplier's recommendations. The collected RNAs is stored at −80° C.
The RNA concentration is determined by spectrophotometric measurement (QIAxpert, Qiagen) and the RNA quality is analyzed by capillarity electrophoresis (Agilent Bioanalyzer 2100-Agilent RNA 6000 Nano Kit, 5067-1511). The integrity of the total RNA is assessed by visualization of intact ribosomal RNA bands. For the total RNA from higher eukaryotes, the size of the ribosomal bands should be 1.9 kb for the 18S-RNA and 4.7 kb for the 28S-RNA. The intensity of the band corresponding to the 28S RNA must be greater than the intensity of the band corresponding to the 18S-RNA (left profile, in image below). Small and diffuse bands representing low molecular weight RNAs (tRNA and 5S ribosomal RNA) may be present. Degradation of the RNA is apparent as a smearing of ribosomal RNA bands and high molecular weight background as shown below (right profile, in image below).
Reverse transcription is performed with the high-capacity RNA-to-cDNA kit (Applied Biosystems; 438706) from total RNA according to the manufacturer's instructions. The cDNAs are then stored at −20° C. until use in polymerase chain reactions.
The microfluidic TaqMan qPCR arrays (or TaqMan low density arrays) were designed by StratiCELL and manufactured on demand by Applied Biosystems. […]
The TaqMan arrays are processed as described by the manufacturer's instructions (Micro Fluidic Card Getting Started Guide, Applied Biosystems). Briefly, cDNAs are mixed with a specific buffer (TaqMan Fast Advanced Master Mix, 4444557, Applied Biosystems) before being injected into the arrays and dispersed into the wells by centrifugation. Arrays are sealed and qPCRs are run using the Quantstudio7 Real-Time PCR System (Applied Biosystems) and its software (QuantStudio real time PCR Software v1.3. software, Applied Biosystems).
Threshold cycles (Ct) are obtained for each gene. Results files are exported from the qPCR device and analyzed using the DataAssist Software (v3.00, Applied Biosystems) designed to perform relative quantification of gene expression using the comparative Ct (ΔΔCt) method, through a combination of statistical analysis.
The data obtained for the conditions treated with the formulations is compared to the untreated condition or to the condition treated with the vehicle. The effects of the cytokine cocktail stimulation are analyzed as well by comparison of the data obtained for the untreated control (unstimulated) to the data obtained for the stimulated untreated control. The Ct values are normalized to the mean Ct of 3 housekeeping genes present on the array. The maximum Ct cut-off value was fixed at 36 cycles meaning that Ct values above 36 are not considered in the analysis. […]

[1] = Stimulated + BETi1 0.001% vs Stimulated + BETi1 vehicle, results after correction
[2] = Stimulated + BETi1 0.001% vs Stimulated + BETi1 vehicle, results after correction, inconclusive, Ct of some replicates above 36
[3] = Stimulated + BETi1 0.001% vs Stimulated + BETi1 vehicle, results as originally presented (transcription error)
[4] = Stimulated + BETi1 0.001% vs Stimulated + BETi1 vehicle, results as originally presented (transcription error), inconclusive, Ct of some replicates above 36
[5] = Stimulated + BETi1 1% vs Stimulated + BETi1 vehicle, results after correction
[6] = Stimulated + BETi1 1% vs Stimulated + BETi1 vehicle, results after correction, inconclusive, Ct of some replicates above 36
[7] = Stimulated + BETi1 1% vs Stimulated + BETi1 vehicle, results as originally presented (transcription error for some genes)
[8] = Stimulated + BETi1 1% vs Stimulated + BETi1 vehicle, results as originally presented (transcription error for some genes), inconclusive, Ct of some replicates above 36
[9] = Stimulated RHE treated with BETi1 at 0.01% vs BETi1 vehicle
[10] = Stimulated RHE treated with BETi1 at 0.1% vs BETi1 vehicle
[11] = stimulated RHE, vs stimulated + vehicle
[12] = stimulated RHE, vs stimulated + vehicle, listed as BETi1 0.1%
[13] = stimulated RHE, vs stimulated + vehicle, listed as BETi1 1%

Cn1cc(-c2cccc(O)c2Oc2ccccc2)c2cc[nH]c2c1=O [BETi1]
WNT signaling pathway upregulation, increase (1% concentration, relative to vehicle / stimulated control): 10 fold | FC of AP1M1 gene expression [1]: 0.7447 | FC of APAF1 gene expression [1]: 1.5797 | FC of BCL2 gene expression [1]: 0.7462 | FC of HPS4 gene expression [1]: 0.6711 | FC of POMC gene expression [1]: 0.5586 | FC of ASIP gene expression [2]: 0.7104 | FC of CALML6 gene expression [2]: 0.7104 | FC of GNAO1 gene expression [2]: 0.7104 | FC of AP1M1 gene expression [3]: 0.6303 | FC of APAF1 gene expression [3]: 3.5532 | FC of BCL2 gene expression [3]: 1.3312 | FC of HPS4 gene expression [3]: 0.4147 | FC of POMC gene expression [3]: 0.3574 | FC of ASIP gene expression [4]: 0.6303 | FC of GNAO1 gene expression [4]: 0.6303 | FC of AIM1 gene expression [5]: 0.4502 | FC of AP1S1 gene expression [5]: 0.6116 | FC of ATP2A2 gene expression [5]: 0.2632 | FC of ATP7A gene expression [5]: 0.4094 | FC of BAD gene expression [5]: 0.2547 | FC of BCL2 gene expression [5]: 0.5772 | FC of CREBBP gene expression [5]: 0.3195 | FC of DVL1 gene expression [5]: 0.4492 | FC of EDN1 gene expression [5]: 0.0395 | FC of EDNRB gene expression [5]: 0.1544 | FC of GADD45A gene expression [5]: 0.2375 | FC of GNAI1 gene expression [5]: 0.3672 | FC of GNAS gene expression [5]: 0.4273 | FC of HPS1 gene expression [5]: 0.5127 | FC of HPS4 gene expression [5]: 0.3088 | FC of IL1A gene expression [5]: 0.0124 | FC of IL1B gene expression [5]: 0.0208 | FC of KIT gene expression [5]: 0.6404 | FC of MAPK14 gene expression [5]: 0.3927 | FC of MLPH gene expression [5]: 0.3039 | FC of MYO5A gene expression [5]: 0.4524 | FC of OCA2 gene expression [5]: 0.293 | FC of PCNA gene expression [5]: 7.0134 | FC of POMC gene expression [5]: 0.1039 | FC of PTGER3 gene expression [5]: 0.4259 | FC of RAB3A gene expression [5]: 14.5685 | FC of RAB27A gene expression [5]: 0.2763 | FC of RAB32 gene expression [5]: 0.1471 | FC of RAB38 gene expression [5]: 0.3579 | FC of SLC24A5 gene expression [5]: 0.1051 | FC of SNAP25 gene expression [5]: 0.2366 | FC of SOX9 gene expression [5]: 0.0882 | FC of SOX10 gene expression [5]: 0.4034 | FC of STX6 gene expression [5]: 0.3683 | FC of TYR gene expression [5]: 0.405 | FC of USF1 gene expression [5]: 0.497 | FC of WNT16 gene expression [5]: 10.0801 | FC of XPC gene expression [5]: 1.6569 | FC of ASIP gene expression [6]: 0.4753 | FC of CALML6 gene expression [6]: 0.4753 | FC of CAMK2A gene expression [6]: 0.4753 | FC of GNAO1 gene expression [6]: 0.4753 | FC of PTGER1 gene expression [6]: 0.4753 | FC of AIM1 gene expression [7]: 0.4753 | FC of AP1S1 gene expression [7]: 0.727 | FC of ATP2A2 gene expression [7]: 0.293 | FC of ATP7A gene expression [7]: 0.4273 | FC of BAD gene expression [7]: 0.2763 | FC of BCL2 gene expression [7]: 0.6404 | FC of CREBBP gene expression [7]: 0.3672 | FC of DVL1 gene expression [7]: 0.4524 | FC of EDN1 gene expression [7]: 0.1039 | FC of EDNRB gene expression [7]: 0.2375 | FC of GADD45A gene expression [7]: 0.2632 | FC of GNAI1 gene expression [7]: 0.3927 | FC of GNAS gene expression [7]: 0.4502 | FC of HPS1 gene expression [7]: 0.6116 | FC of HPS4 gene expression [7]: 0.3579 | FC of IL1A gene expression [7]: 0.0395 | FC of IL1B gene expression [7]: 0.0882 | FC of KIT gene expression [7]: 1.6569 | FC of MAPK14 gene expression [7]: 0.405 | FC of MLPH gene expression [7]: 0.3195 | FC of MYO5A gene expression [7]: 0.4753 | FC of OCA2 gene expression [7]: 0.3088 | FC of PCNA gene expression [7]: 7.0134 | FC of POMC gene expression [7]: 0.1471 | FC of PTGER3 gene expression [7]: 0.4492 | FC of RAB3A gene expression [7]: 14.5685 | FC of RAB27A gene expression [7]: 0.3039 | FC of RAB32 gene expression [7]: 0.2366 | FC of RAB38 gene expression [7]: 0.3683 | FC of SLC24A5 gene expression [7]: 0.1544 | FC of SNAP25 gene expression [7]: 0.2547 | FC of SOX9 gene expression [7]: 0.1051 | FC of SOX10 gene expression [7]: 0.4094 | FC of STX6 gene expression [7]: 0.4034 | FC of TYR gene expression [7]: 0.4259 | FC of USF1 gene expression [7]: 0.5772 | FC of WNT16 gene expression [7]: 10.0801 | FC of XPC gene expression [7]: 1.8367 | FC of ASIP gene expression [8]: 0.5127 | FC of CALML6 gene expression [8]: 0.497 | FC of CAMK2A gene expression [8]: 0.4753 | FC of GNAO1 gene expression [8]: 0.4753 | FC of PTGER1 gene expression [8]: 0.4753 | FC of AP1S1 gene expression [9]: 1.3312 | FC of ASIP gene expression [9]: 0.6303 | FC of CALML6 gene expression [9]: 0.6303 | FC of CAMK2A gene expression [9]: 0.6303 | FC of GADD45A gene expression [9]: 0.3574 | FC of GNAO1 gene expression [9]: 0.6303 | FC of POMC gene expression [9]: 0.4147 | FC of RAB3A gene expression [9]: 3.5532 | FC of ADCY2 gene expression [10]: 0.1137 | FC of AP1M1 gene expression [10]: 0.6311 | FC of ATP2A2 gene expression [10]: 0.2769 | FC of BAD gene expression [10]: 0.2735 | FC of CALML6 gene expression [10]: 0.5429 | FC of CAMK2A gene expression [10]: 0.5043 | FC of EDN1 gene expression [10]: 0.0413 | FC of EDNRB gene expression [10]: 0.2737 | FC of GADD45A gene expression [10]: 0.1803 | FC of GNAI1 gene expression [10]: 0.5815 | FC of HPS4 gene expression [10]: 0.4224 | FC of IL1A gene expression [10]: 0.0454 | FC of IL1B gene expression [10]: 0.0727 | FC of KITLG gene expression [10]: 1.8415 | FC of MAPK14 gene expression [10]: 0.4724 | FC of MLPH gene expression [10]: 0.355 | FC of MYO5A gene expression [10]: 0.5462 | FC of PCNA gene expression [10]: 3.2615 | FC of POMC gene expression [10]: 0.1665 | FC of PPIA gene expression [10]: 1.6969 | FC of PTGER3 gene expression [10]: 0.4799 | FC of RAB3A gene expression [10]: 10.8195 | FC of RAB32 gene expression [10]: 0.2378 | FC of RAB38 gene expression [10]: 0.5643 | FC of SLC24A5 gene expression [10]: 0.272 | FC of SOX9 gene expression [10]: 0.1155 | FC of SOX10 gene expression [10]: 0.4196 | FC of STX6 gene expression [10]: 0.4214 | FC of WNT16 gene expression [10]: 8.7922 | RQ (fold change) AP1S1 [11]: 1.3312 | RQ (fold change) APAF1 [11]: 1.5797 | RQ (fold change) HSP4 [11]: 0.6711 | RQ (fold change) KITLG [11]: 1.8415 | RQ (fold change) POMC [11]: 0.5586 | RQ (fold change) PPIA [11]: 1.6969 | RQ (fold change) XPC [11]: 1.6569 | RQ (fold change) RAB3A (stimulated RHE, vs stimulated + vehicle, listed as BETi1 0.01%): 3.5532 | RQ (fold change) EDN1 [12]: 0.0413 | RQ (fold change) IL1A [12]: 0.0454 | RQ (fold change) IL1B [12]: 0.0727 | RQ (fold change) PCNA [12]: 3.2615 | RQ (fold change) RAB3A [12]: 10.8195 | RQ (fold change) SOX9 [12]: 0.1155 | RQ (fold change) WNT16 [12]: 8.7922 | RQ (fold change) EDN1 [13]: 0.0395 | RQ (fold change) IL1A [13]: 0.0124 | RQ (fold change) IL1B [13]: 0.0208 | RQ (fold change) PCNA [13]: 7.0134 | RQ (fold change) RAB3A [13]: 14.5685 | RQ (fold change) SOX9 [13]: 0.0882 | RQ (fold change) WNT16 [13]: 10.0801
